Measurements as given in the OligoGym collection.
Oligonucleotides are written 5' to 3', each unit as a sugar letter and its base; * is a phosphorothioate linkage, no mark a phosphodiester; rarer units and linkages stand in square brackets, end groups in braces. Plain capitals give the bases only. d = 2'-deoxy (DNA); r = 2'-OH (RNA)

The substances below were run against P2rx2 (rat) (assay: reporter assay of Huesken 2005). Details: siRNA.
Also: test concentration or dose not given here.

Substance | normalised inhibition (eCFP-eYFP dual reporter) [%]
sense rUrUrGrCrCrArArGrUrArUrUrArCrArArGrArUdTdT / antisense rArUrCrUrUrGrUrArArUrArCrUrUrGrGrCrArAdAdC | 56.7
sense rUrGrCrCrCrUrUrGrUrCrUrUrGrGrGrCrCrArGdTdT / antisense rCrUrGrGrCrCrCrArArGrArCrArArGrGrGrCrAdAdG | 37
sense rArCrUrUrCrUrGrArCrArArCrCrArUrUrUrUrCdTdT / antisense rGrArArArArUrGrGrUrUrGrUrCrArGrArArGrUdTdC | 33.5
sense rCrArGrUrGrUrArGrUrCrArGrCrArUrCrArUrCdTdT / antisense rGrArUrGrArUrGrCrUrGrArCrUrArCrArCrUrGdCdC | 78.4
sense rGrArArArUrUrCrArGrUrCrUrCrArUrUrCrCrCdTdT / antisense rGrGrGrArArUrGrArGrArCrUrGrArArUrUrUrCdCdC | 39.7
sense rUrGrUrCrUrGrArArUrCrArGrArGrUrGrCrArAdTdT / antisense rUrUrGrCrArCrUrCrUrGrArUrUrCrArGrArCrAdAdG | 80.9
sense rUrGrGrCrCrArCrUrGrCrUrCrUrGrArCrCrUrCdTdT / antisense rGrArGrGrUrCrArGrArGrCrArGrUrGrGrCrCrAdGdA | 57
sense rCrUrGrGrArArCrUrGrUrGrArCrCrUrGrGrArCdTdT / antisense rGrUrCrCrArGrGrUrCrArCrArGrUrUrCrCrArGdTdT | 70.3
sense rUrCrArGrCrCrArCrCrCrArGrCrCrCrUrCrCrAdTdT / antisense rUrGrGrArGrGrGrCrUrGrGrGrUrGrGrCrUrGrAdTdC | 51.2
sense rCrGrGrArArGrArCrArArArGrUrGrUrGrGrGrAdTdT / antisense rUrCrCrCrArCrArCrUrUrUrGrUrCrUrUrCrCrGdAdC | 64.6
sense rUrCrCrCrArGrArCrCrUrUrGrGrGrArArCrArUdTdT / antisense rArUrGrUrUrCrCrCrArArGrGrUrCrUrGrGrGrAdAdG | 50.4
sense rUrCrArUrCrArArUrCrUrGrGrCrCrArCrUrGrCdTdT / antisense rGrCrArGrUrGrGrCrCrArGrArUrUrGrArUrGrAdTdG | 43.1
sense rArGrGrGrCrArCrUrGrUrGrUrArCrCrCrUrArUdTdT / antisense rArUrArGrGrGrUrArCrArCrArGrUrGrCrCrCrUdGdT | 55
sense rArArCrArArGrCrUrCrUrArCrArGrCrCrArUrAdTdT / antisense rUrArUrGrGrCrUrGrUrArGrArGrCrUrUrGrUrUdTdT | 76.6
sense rCrUrArCrCrCrCrArArGrUrUrCrArArGrUrUrCdTdT / antisense rGrArArCrUrUrGrArArCrUrUrGrGrGrGrUrArGdTdG | 62.8
sense rCrUrCrCrUrUrCrCrUrGrUrGrUrGrArCrUrGrGdTdT / antisense rCrCrArGrUrCrArCrArCrArGrGrArArGrGrArGdCdC | 47.5

Substance | normalised inhibition (eCFP-eYFP dual reporter) [%]
sense rGrArGrGrArArUrArCrGrUrArArArGrCrCrCrCdTdT / antisense rGrGrGrGrCrUrUrUrArCrGrUrArUrUrCrCrUrCdCdA | 34.9
sense rCrArUrCrUrCrUrGrCrUrCrUrGrArCrUrGrArGdTdT / antisense rCrUrCrArGrUrCrArGrArGrCrArGrArGrArUrGdGdA | 42.7
sense rCrUrGrArCrArArCrCrArUrUrUrUrCrUrGrGrGdTdT / antisense rCrCrCrArGrArArArArUrGrGrUrUrGrUrCrArGdAdA | 40.3
sense rGrArCrCrCrUrGrCrCrUrCrCrUrCrArGrGrCrUdTdT / antisense rArGrCrCrUrGrArGrGrArGrGrCrArGrGrGrUrCdAdT | 61.9
sense rUrGrCrCrArArGrUrArUrUrArCrArArGrArUrAdTdT / antisense rUrArUrCrUrUrGrUrArArUrArCrUrUrGrGrCrAdAdA | 76.8
sense rUrCrArArGrUrArGrArUrGrGrCrCrUrGrUrGrAdTdT / antisense rUrCrArCrArGrGrCrCrArUrCrUrArCrUrUrGrAdGdG | 67.1
sense rCrArArGrGrCrArArUrGrGrGrArUrUrCrGrCrAdTdT / antisense rUrGrCrGrArArUrCrCrCrArUrUrGrCrCrUrUrGdCdA | 64.4
sense rGrGrArArGrArCrArArArGrUrGrUrGrGrGrArCdTdT / antisense rGrUrCrCrCrArCrArCrUrUrUrGrUrCrUrUrCrCdGdA | 69.5
sense rCrUrGrGrArCrArUrGrCrArArGrGrCrArArUrGdTdT / antisense rCrArUrUrGrCrCrUrUrGrCrArUrGrUrCrCrArGdCdT | 55.2
sense rCrUrCrUrGrArCrUrGrArGrCrArGrGrUrGrGrUdTdT / antisense rArCrCrArCrCrUrGrCrUrCrArGrUrCrArGrArGdCdA | 46.8
sense rUrUrCrArCrArGrCrUrCrUrArCrCrUrGrCrCrAdTdT / antisense rUrGrGrCrArGrGrUrArGrArGrCrUrGrUrGrArAdCdC | 51.7
sense rGrCrUrCrUrArCrCrUrGrCrCrArUrUrCrArGrAdTdT / antisense rUrCrUrGrArArUrGrGrCrArGrGrUrArGrArGrCdTdG | 79.4
sense rGrCrUrArCrCrArGrGrArCrArGrCrGrArGrArCdTdT / antisense rGrUrCrUrCrGrCrUrGrUrCrCrUrGrGrUrArGrCdTdT | 60.5
sense rUrGrArCrCrCrUrUrGrCrCrCrUrUrGrUrCrUrUdTdT / antisense rArArGrArCrArArGrGrGrCrArArGrGrGrUrCrAdCdA | 53.9
sense rGrGrCrArGrGrGrArArArUrUrCrArGrUrCrUrCdTdT / antisense rGrArGrArCrUrGrArArUrUrUrCrCrCrUrGrCrCdTdG | 51.5

Each substance was assayed against UBE2C (assay: reporter assay of Huesken 2005). Details: siRNA.

Substance | normalised inhibition (eCFP-eYFP dual reporter) [%]
sense rCrUrUrCrUrArGrGrArGrArArCrCrCrArArCrAdTdT / antisense rUrGrUrUrGrGrGrUrUrCrUrCrCrUrArGrArArGdGdC | 86.1
sense rArGrGrArGrArArCrCrCrArArCrArUrUrGrArUdTdT / antisense rArUrCrArArUrGrUrUrGrGrGrUrUrCrUrCrCrUdAdG | 94.2
sense rArCrCrCrUrUrArCrArArUrGrCrGrCrCrCrArCdTdT / antisense rGrUrGrGrGrCrGrCrArUrUrGrUrArArGrGrGrUdAdG | 47.4
sense rCrArUrGrCrUrGrCrCrGrArGrCrUrCrUrGrGrAdTdT / antisense rUrCrCrArGrArGrCrUrCrGrGrCrArGrCrArUrGdTdG | 90.5
sense rArGrUrGrGrCrUrArCrCrCrUrUrArCrArArUrGdTdT / antisense rCrArUrUrGrUrArArGrGrGrUrArGrCrCrArCrUdGdG | 76.9
sense rGrCrCrUrUrCrUrArGrGrArGrArArCrCrCrArAdTdT / antisense rUrUrGrGrGrUrUrCrUrCrCrUrArGrArArGrGrCdTdC | 92.8
sense rGrGrUrCrUrGrCrCrCrUrGrUrArUrGrArUrGrUdTdT / antisense rArCrArUrCrArUrArCrArGrGrGrCrArGrArCrCdAdC | 55.5
sense rCrArUrUrCrUrGrCrUrCrUrCrCrArUrCrCrArGdTdT / antisense rCrUrGrGrArUrGrGrArGrArGrCrArGrArArUrGdGdT | 79.7
sense rCrCrArUrCrCrArUrGrGrArGrCrArGrCrUrGrGdTdT / antisense rCrCrArGrCrUrGrCrUrCrCrArUrGrGrArUrGrGdTdC | 80.7
sense rArCrArCrArCrArUrGrCrUrGrCrCrGrArGrCrUdTdT / antisense rArGrCrUrCrGrGrCrArGrCrArUrGrUrGrUrGrUdTdC | 78
sense rArUrGrUrCrArGrGrArCrCrArUrUrCrUrGrCrUdTdT / antisense rArGrCrArGrArArUrGrGrUrCrCrUrGrArCrArUdCdA | 56.5
sense rUrGrCrCrUrGrGrArCrArUrCrCrUrGrArArGrGdTdT / antisense rCrCrUrUrCrArGrGrArUrGrUrCrCrArGrGrCrAdTdA | 49.2
sense rCrCrCrCrArGrUrGrGrCrUrArCrCrCrUrUrArCdTdT / antisense rGrUrArArGrGrGrUrArGrCrCrArCrUrGrGrGrGdAdA | 67.7
sense rUrArArGrCrUrCrUrCrGrCrUrArGrArGrUrUrCdTdT / antisense rGrArArCrUrCrUrArGrCrGrArGrArGrCrUrUrAdTdA | 60.2
sense rArCrArUrArUrGrCrCrUrGrGrArCrArUrCrCrUdTdT / antisense rArGrGrArUrGrUrCrCrArGrGrCrArUrArUrGrUdTdA | 75.7
sense rArGrArCrCrUrGrArGrGrUrArUrArArGrCrUrCdTdT / antisense rGrArGrCrUrUrArUrArCrCrUrCrArGrGrUrCrUdTdC | 71.7
sense rGrArArCrArCrArCrArUrGrCrUrGrCrCrGrArGdTdT / antisense rCrUrCrGrGrCrArGrCrArUrGrUrGrUrGrUrUrCdAdA | 89.6
sense rCrArGrGrArCrCrArUrUrCrUrGrCrUrCrUrCrCdTdT / antisense rGrGrArGrArGrCrArGrArArUrGrGrUrCrCrUrGdAdC | 45.4
sense rArArCrArUrUrGrArUrArGrUrCrCrCrUrUrGrAdTdT / antisense rUrCrArArGrGrGrArCrUrArUrCrArArUrGrUrUdGdG | 93.1
sense rArUrGrGrArGrCrArGrCrUrGrGrArArCrArGrUdTdT / antisense rArCrUrGrUrUrCrCrArGrCrUrGrCrUrCrCrArUdGdG | 84.5
sense rArArUrGrCrGrCrCrCrArCrArGrUrGrArArGrUdTdT / antisense rArCrUrUrCrArCrUrGrUrGrGrGrCrGrCrArUrUdGdT | 57.6
